Test results published in patent publication US4636515A, “Non-classical topical treatment for glaucoma” (University of Iowa Research Foundation, priority 1984, dated 1987).

Columns and labels:
[1] = biological target: carbonic anhydrase; assay: in vitro carbonic anhydrase activity, simplified method of Maren; type: biochemical
Experimental: The procedure required the use of a specialized glass reaction vessel to which was added 0.4 ml phenol red indicator (0.00125%), 0.25 to 0.30 ml heparinized blood containing 2 enzyme units of carbonic anhydrase, 0.1 ml drug solution (0.01 to 100 mg/L) and 0.1 ml of 0.255 M carbonate buffer. […] Each reagent was added at a specified time and in a specified order. […] Reaction time was the time for the uncatalyzed reaction time. […] By varying the time before adding the carbonate buffer and then determining the reaction time, the equilibration time can be accurately determined. The reaction time was averaged over three determinations. A range of drug concentrations were reacted and the concentration of drug causing 50% inhibition of enzyme (I50) read from a plot of reaction time against drug concentration. (If two enzyme units are added, then the concentration of drug yielding a reaction time corresponding to the activity of one unit is taken as the I50).

[2] = test system: eye of normal adult white rabbits; assay: Salted rabbit test: intraocular pressure after topical instillation; type: in vivo; conditions: for IOP change, Av. Chg.: 1% w/v suspension, 3 drops topical, vs placebo fellow eye, six rabbits
Experimental: In particular, an initial drop from the test formulation followed by two drops at one minute intervals are applied to one eye of each of six adult white rabbits that had been maintained on a diet containing 0.5% sodium. The treated eye was selected randomly, whereas, the fellow eye received placebo; the observer was masked. Results identified a small but significant reduction of intraocular pressure in the treated eye at 30, 60 and 120 minutes.
One drop, followed by two drops each at one minute intervals, was applied to one eye of normal adult white rabbits. Six rabbits were used in the experiment. The treated eye was selected randomly, whereas, the fellow eye received placebo. The observer was masked. The intraocular pressure (IOP) was measured with a Digilab pneumotonometer, initially and every ten minutes for 120 minutes following instillation of the anti-glaucoma agent. A drop of local anesthetic was applied just prior to making the measurement.

Compound	I50 (concentration of drug causing 50% inhibition of enzyme), averaged ([1]; heparinized blood containing 2 enzyme units of carbonic anhydrase, 0° C.)	IOP change, Av. Chg. ([2]; 10 minutes)	IOP change, Av. Chg. ([2]; 20 minutes)	IOP change, Av. Chg. ([2]; 30 minutes)	IOP change, Av. Chg. ([2]; 40 minutes)	IOP change, Av. Chg. ([2]; 50 minutes)	IOP change, Av. Chg. ([2]; 60 minutes)	IOP change, Av. Chg. ([2]; 70 minutes)	IOP change, Av. Chg. ([2]; 80 minutes)	IOP change, Av. Chg. ([2]; 90 minutes)	IOP change, Av. Chg. ([2]; 100 minutes)	IOP change, Av. Chg. ([2]; 110 minutes)	IOP change, Av. Chg. ([2]; 120 minutes)	effect on intraocular pressure (IOP) in vivo (in words) ([2]; after topical administration)	lowering of IOP, statistical significance ([2]; all time intervals, 10 to 120 minutes)	time required for carbonic anhydrase to reach an equilibrium with drug ([1]; time between addition of drug solution and carbonate buffer)
CNS(=O)(=O)c1nnc(NC(C)=O)s1 [methyl acetazolamide, N-methyl-2-acetylamino-1,3,4-thiadiazole-5-sulfonamide]	0.520 mg/L	-2 mm Hg	-1.67 mm Hg	-2.33 mm Hg	-0.40 mm Hg	-1.83 mm Hg	-1.67 mm Hg	-1.67 mm Hg	-2.14 mm Hg	-1.50 mm Hg	-2.67 mm Hg	-0.67 mm Hg	-1.5 mm Hg	able to reduce intraocular pressure	statistically significant	–
Nc1ccc(S(N)(=O)=O)cc1 [sulfanilamide, reference compound]	–	–	–	–	–	–	–	–	–	–	–	–	–	–	–	10 s
